What was measured:
[1] = target: Beta-2 adrenergic receptor (Homo sapiens, UniProt P07550)
Estrogen receptor = target: T1, Estrogen receptor (Homo sapiens, UniProt P03372)
T1 sequence (P03372 whole entry): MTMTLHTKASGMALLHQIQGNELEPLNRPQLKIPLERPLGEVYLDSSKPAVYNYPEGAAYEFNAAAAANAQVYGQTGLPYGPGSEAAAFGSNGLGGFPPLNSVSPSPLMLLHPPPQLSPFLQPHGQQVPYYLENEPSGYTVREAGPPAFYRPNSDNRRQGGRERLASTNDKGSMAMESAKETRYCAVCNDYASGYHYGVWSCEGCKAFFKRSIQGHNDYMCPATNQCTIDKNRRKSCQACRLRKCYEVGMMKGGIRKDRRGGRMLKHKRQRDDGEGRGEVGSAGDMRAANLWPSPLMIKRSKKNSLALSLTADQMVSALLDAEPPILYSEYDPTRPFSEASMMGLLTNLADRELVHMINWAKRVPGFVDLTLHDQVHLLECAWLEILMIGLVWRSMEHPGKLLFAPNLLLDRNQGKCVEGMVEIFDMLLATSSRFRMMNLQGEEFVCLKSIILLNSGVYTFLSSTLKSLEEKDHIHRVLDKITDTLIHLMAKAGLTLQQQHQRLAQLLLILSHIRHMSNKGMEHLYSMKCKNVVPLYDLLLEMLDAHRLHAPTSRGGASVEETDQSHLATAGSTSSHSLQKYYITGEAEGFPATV

[2] = target: cGMP-inhibited 3',5'-cyclic phosphodiesterase 3A (Homo sapiens, UniProt Q14432); type: functional
cGMP-inhibited 3',5'-cyclic phosphodiesterase 3A, sequence (Q14432 whole entry): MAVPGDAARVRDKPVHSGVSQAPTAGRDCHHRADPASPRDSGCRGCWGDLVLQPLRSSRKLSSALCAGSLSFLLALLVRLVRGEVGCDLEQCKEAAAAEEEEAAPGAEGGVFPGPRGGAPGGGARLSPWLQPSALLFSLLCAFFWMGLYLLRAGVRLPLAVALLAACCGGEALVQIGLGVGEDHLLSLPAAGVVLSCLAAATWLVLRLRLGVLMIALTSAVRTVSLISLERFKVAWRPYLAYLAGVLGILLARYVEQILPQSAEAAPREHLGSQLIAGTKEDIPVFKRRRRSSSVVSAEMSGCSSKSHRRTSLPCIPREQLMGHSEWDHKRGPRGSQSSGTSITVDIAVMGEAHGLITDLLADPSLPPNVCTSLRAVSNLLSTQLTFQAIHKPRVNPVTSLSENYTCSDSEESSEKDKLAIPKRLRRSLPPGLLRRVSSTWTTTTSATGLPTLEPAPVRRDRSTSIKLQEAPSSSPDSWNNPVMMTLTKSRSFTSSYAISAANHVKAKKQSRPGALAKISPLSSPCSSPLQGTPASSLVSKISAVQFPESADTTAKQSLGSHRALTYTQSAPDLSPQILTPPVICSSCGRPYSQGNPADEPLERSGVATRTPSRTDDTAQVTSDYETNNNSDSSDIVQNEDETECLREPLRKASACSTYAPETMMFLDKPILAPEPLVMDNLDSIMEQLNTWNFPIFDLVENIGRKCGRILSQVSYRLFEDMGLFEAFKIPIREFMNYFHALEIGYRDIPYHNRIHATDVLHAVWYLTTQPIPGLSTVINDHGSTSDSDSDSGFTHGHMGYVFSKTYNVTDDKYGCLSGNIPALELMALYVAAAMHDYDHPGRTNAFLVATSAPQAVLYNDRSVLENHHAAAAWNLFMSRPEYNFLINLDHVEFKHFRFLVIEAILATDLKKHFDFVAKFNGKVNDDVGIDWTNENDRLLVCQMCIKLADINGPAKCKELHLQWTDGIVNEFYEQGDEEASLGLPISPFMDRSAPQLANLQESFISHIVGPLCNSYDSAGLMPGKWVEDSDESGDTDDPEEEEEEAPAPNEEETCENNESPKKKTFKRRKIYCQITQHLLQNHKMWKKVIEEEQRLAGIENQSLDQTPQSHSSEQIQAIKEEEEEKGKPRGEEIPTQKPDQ

[3] = target: T2, Gamma-aminobutyric acid receptor subunit alpha-1 (Rattus norvegicus, UniProt P62813); type: functional
T2 sequence (P62813 whole entry): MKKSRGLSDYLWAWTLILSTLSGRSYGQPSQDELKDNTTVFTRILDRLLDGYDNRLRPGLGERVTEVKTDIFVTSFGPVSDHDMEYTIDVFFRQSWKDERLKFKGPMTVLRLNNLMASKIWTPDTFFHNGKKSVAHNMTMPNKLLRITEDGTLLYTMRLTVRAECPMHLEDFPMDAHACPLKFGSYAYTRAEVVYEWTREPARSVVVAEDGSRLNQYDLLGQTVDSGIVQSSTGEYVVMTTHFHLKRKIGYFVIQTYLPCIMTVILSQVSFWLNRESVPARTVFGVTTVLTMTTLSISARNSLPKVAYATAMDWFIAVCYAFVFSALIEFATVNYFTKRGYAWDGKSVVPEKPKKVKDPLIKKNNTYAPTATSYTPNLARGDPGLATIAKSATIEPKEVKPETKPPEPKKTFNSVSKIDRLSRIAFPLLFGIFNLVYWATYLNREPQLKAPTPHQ

[4] = target: Growth hormone secretagogue receptor type 1 (Homo sapiens, UniProt Q92847)
Growth hormone secretagogue receptor type 1, sequence (Q92847 whole entry): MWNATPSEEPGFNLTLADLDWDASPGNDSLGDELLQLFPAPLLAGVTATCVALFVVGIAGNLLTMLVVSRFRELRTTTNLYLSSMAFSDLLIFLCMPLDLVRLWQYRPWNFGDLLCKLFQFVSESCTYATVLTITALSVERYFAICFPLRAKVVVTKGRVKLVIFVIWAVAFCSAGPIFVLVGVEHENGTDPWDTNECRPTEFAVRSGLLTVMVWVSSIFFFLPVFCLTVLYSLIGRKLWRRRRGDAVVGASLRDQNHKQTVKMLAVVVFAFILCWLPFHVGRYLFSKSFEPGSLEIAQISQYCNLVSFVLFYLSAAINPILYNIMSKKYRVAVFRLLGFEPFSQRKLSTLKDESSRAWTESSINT

D(3) dopamine receptor = D(3) dopamine receptor (Homo sapiens, UniProt P35462)
D(3) dopamine receptor, sequence (P35462 whole entry): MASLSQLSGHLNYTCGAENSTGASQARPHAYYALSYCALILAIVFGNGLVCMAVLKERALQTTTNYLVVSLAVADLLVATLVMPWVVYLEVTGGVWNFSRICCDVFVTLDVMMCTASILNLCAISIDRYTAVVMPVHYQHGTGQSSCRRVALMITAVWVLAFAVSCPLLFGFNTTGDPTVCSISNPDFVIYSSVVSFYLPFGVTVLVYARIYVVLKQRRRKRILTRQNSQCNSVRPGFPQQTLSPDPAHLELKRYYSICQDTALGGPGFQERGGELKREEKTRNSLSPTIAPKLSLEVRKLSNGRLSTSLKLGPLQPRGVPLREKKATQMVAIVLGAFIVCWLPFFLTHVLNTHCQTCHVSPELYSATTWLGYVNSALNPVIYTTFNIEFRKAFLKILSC

Motilin receptor = Motilin receptor (Homo sapiens, UniProt O43193)
Motilin receptor, sequence (O43193 whole entry): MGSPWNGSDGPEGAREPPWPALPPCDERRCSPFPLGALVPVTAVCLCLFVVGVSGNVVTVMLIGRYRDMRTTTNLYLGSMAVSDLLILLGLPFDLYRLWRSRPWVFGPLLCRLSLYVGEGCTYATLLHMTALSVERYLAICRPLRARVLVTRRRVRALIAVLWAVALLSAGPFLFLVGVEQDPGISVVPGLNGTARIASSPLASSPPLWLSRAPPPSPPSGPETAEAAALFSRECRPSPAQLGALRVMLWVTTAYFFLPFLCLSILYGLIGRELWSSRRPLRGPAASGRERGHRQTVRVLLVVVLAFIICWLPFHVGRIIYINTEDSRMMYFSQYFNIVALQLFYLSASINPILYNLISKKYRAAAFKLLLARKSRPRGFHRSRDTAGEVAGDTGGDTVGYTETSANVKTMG

Endothelin-1 receptor = target: T3, Endothelin-1 receptor (Homo sapiens, UniProt P25101)
T3 sequence (P25101 whole entry): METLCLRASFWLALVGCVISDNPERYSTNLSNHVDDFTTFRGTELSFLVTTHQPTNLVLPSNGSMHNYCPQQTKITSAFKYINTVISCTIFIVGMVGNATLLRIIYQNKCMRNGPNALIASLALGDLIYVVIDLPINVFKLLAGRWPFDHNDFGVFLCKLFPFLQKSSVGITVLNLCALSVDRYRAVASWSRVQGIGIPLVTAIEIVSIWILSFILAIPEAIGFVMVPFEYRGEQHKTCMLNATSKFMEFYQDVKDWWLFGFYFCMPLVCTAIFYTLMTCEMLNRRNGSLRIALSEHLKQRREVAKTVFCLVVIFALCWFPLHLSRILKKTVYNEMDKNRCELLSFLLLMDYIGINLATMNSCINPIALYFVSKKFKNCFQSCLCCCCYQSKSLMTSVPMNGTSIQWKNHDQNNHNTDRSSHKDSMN

[5] = target: T2, Gamma-aminobutyric acid receptor subunit alpha-1
[6] = target: T4, Alpha-1A adrenergic receptor (Homo sapiens, UniProt P35348); type: functional, cell-based
T4 sequence (P35348 whole entry): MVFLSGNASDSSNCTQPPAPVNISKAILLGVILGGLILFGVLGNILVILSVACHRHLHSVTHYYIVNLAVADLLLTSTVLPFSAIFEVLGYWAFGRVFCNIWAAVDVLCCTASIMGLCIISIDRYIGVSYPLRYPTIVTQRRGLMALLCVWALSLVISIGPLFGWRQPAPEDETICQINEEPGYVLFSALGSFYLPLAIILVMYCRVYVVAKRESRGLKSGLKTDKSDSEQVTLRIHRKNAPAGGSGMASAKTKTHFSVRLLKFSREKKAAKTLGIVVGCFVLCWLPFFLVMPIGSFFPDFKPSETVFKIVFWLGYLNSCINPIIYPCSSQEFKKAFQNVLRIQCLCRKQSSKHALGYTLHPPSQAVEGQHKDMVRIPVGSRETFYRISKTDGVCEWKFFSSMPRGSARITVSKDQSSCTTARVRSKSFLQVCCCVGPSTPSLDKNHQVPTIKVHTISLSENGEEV

[7] = target: Muscarinic acetylcholine receptor M3 (Homo sapiens, UniProt P20309)
Muscarinic acetylcholine receptor M3, sequence (P20309 whole entry): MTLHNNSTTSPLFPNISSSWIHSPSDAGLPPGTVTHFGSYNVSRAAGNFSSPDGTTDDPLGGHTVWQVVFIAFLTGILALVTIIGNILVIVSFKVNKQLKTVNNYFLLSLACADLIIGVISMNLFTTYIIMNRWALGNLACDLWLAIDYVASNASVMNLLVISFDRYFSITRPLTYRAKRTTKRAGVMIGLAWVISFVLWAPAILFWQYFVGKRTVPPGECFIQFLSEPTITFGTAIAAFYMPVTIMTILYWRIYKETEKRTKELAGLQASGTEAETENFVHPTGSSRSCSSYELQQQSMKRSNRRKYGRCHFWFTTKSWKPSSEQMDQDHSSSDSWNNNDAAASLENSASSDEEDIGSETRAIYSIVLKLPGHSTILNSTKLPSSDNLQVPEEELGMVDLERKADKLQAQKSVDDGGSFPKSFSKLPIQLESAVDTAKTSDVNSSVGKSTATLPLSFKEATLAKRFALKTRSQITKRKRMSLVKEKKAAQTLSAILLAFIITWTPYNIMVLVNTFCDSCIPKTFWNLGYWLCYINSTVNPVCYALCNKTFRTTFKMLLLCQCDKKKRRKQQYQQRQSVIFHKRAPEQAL

Histamine H3 receptor = Histamine H3 receptor (Homo sapiens, UniProt Q9Y5N1)
Histamine H3 receptor, sequence (Q9Y5N1 whole entry): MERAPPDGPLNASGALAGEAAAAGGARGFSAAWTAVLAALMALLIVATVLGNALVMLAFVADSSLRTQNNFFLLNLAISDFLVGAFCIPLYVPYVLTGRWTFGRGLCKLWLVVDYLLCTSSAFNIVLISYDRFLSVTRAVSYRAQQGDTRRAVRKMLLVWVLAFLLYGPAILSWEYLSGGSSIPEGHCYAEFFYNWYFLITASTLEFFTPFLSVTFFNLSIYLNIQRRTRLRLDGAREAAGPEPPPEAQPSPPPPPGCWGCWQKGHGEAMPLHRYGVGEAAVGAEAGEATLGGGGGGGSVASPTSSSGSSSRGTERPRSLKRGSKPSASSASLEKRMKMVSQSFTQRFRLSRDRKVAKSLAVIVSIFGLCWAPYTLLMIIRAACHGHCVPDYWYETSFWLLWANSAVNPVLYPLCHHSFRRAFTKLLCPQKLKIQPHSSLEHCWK

[8] = target: T5, 5-hydroxytryptamine receptor 1A (Homo sapiens, UniProt P08908); type: functional, cell-based
T5 sequence (P08908 whole entry): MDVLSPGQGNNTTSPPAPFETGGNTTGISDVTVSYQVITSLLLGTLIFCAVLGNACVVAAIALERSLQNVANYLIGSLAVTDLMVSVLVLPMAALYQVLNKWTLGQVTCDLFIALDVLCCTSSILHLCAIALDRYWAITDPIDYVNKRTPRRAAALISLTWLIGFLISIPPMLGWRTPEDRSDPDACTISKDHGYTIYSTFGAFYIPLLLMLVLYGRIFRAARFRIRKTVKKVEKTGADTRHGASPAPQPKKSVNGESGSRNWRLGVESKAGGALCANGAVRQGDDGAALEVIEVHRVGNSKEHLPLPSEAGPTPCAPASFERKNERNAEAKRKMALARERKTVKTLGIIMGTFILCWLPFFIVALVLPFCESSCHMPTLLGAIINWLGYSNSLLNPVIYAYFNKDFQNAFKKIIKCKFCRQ

[9] = target: Glutamate receptor ionotropic, NMDA 1 (Rattus norvegicus, UniProt P35439)
Melanocortin receptor 4 = Melanocortin receptor 4 (Homo sapiens, UniProt P32245)
Melanocortin receptor 4, sequence (P32245 whole entry): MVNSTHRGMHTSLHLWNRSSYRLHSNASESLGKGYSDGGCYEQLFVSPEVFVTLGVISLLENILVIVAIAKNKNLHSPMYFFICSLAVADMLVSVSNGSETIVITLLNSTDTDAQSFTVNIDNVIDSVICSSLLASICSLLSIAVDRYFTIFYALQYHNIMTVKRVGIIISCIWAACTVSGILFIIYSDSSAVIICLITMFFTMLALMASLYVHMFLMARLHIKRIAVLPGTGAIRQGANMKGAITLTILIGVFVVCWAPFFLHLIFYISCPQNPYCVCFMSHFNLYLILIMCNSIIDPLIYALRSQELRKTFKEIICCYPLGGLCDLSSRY

[10] = target: T4, Alpha-1A adrenergic receptor

Measured: AC50
Further: assay procedure not described here.

Beta-2 adrenergic receptor, sequence (P07550 whole entry): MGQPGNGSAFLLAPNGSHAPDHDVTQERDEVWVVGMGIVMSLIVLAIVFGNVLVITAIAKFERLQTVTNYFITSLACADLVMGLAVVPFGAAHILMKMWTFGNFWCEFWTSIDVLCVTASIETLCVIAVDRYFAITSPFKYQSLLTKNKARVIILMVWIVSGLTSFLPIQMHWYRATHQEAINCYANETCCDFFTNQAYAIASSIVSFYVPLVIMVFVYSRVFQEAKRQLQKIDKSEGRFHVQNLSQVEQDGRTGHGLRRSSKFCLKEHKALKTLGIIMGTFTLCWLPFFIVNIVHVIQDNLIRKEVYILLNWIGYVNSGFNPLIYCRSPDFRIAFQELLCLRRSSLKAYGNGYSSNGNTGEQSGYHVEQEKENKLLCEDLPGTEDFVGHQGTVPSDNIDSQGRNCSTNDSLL

CC1NCCOC1c1ccccc1 (stereo not drawn) [PHENMETRAZINE]
> 30 µM: Estrogen receptor | [2] | [4] | D(3) dopamine receptor | Endothelin-1 receptor | [7] | Melanocortin receptor 4
14 µM: [6]
> 10 µM: [1] | [3] | Motilin receptor | [5] | Histamine H3 receptor | [8] | [9] | [10]

COc1ccc2c3c1O[C@H]1C(=O)CC[C@H]4[C@@H](C2)N(C)CC[C@]314 [HYDROCODONE]
> 30 µM: Estrogen receptor | [2] | [4] | Endothelin-1 receptor | [6] | Melanocortin receptor 4
> 10 µM: [1] | [3] | D(3) dopamine receptor | Motilin receptor | [5] | [7] | Histamine H3 receptor | [8] | [9] | [10]

COc1ccc(C(Cl)=C(c2ccc(OC)cc2)c2ccc(OC)cc2)cc1 [CHLOROTRIANISENE]
> 30 µM: [2] | [3] | [4] | D(3) dopamine receptor | Motilin receptor | Endothelin-1 receptor | [5] | [6] | [7] | Histamine H3 receptor | [9]
0.817 µM: Estrogen receptor
> 10 µM: [1] | [8] | Melanocortin receptor 4 | [10]
